Biological target: T1, human brain neurotoxic esterase (Homo sapiens, UniProt Q8IY17)
T1 construct: from tissue; host or cells: human brain
T1 sequence (Q8IY17 1-1375): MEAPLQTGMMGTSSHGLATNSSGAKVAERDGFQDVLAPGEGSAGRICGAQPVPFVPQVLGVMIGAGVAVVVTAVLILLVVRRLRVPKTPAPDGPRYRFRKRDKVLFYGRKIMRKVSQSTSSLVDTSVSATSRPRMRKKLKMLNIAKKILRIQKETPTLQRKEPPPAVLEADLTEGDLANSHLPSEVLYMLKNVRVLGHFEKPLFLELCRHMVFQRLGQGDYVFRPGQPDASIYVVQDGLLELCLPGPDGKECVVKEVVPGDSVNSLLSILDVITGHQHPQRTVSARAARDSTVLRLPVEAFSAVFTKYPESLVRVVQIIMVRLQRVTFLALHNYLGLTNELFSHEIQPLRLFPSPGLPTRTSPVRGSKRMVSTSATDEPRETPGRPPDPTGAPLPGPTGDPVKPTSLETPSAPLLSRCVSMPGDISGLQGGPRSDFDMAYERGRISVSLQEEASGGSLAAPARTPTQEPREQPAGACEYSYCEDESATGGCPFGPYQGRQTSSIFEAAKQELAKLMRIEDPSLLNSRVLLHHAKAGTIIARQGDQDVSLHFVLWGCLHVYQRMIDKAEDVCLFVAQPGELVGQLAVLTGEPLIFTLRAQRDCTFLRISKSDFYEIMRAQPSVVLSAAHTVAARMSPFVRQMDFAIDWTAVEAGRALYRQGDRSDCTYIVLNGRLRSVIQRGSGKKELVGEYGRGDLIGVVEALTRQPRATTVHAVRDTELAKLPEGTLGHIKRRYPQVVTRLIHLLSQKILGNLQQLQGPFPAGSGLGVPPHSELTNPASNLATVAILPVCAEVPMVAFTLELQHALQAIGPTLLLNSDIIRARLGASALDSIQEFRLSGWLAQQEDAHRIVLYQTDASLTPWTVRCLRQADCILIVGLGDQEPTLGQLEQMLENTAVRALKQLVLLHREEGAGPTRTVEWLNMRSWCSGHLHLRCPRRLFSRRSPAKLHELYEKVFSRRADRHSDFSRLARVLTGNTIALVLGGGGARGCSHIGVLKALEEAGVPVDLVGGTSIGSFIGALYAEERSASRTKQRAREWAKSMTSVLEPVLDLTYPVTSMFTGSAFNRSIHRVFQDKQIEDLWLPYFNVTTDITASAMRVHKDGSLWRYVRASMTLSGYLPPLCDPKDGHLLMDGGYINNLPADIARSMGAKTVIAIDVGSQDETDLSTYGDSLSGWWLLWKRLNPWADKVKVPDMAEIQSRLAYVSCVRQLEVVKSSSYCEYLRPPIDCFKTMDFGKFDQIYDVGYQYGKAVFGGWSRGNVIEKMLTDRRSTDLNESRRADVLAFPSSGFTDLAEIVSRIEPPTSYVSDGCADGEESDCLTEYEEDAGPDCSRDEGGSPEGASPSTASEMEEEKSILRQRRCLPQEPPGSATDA
Assay: blocking of mepafox inhibition of neurotoxic esterase
Format: biochemical
Details: relative to the other compounds
Description: The data in Table III were generated by determining what concentration of the various novel compounds were needed to block the inhibition of human brain neurotoxic esterase by a high concentration of mepafox.

O=C(CSc1ccc(Oc2ccc(SCC(=O)C(F)(F)F)cc2)cc1)C(F)(F)F [Compound 35]
potency in blocking neurotoxic esterase: most potent to date
